Values after ≈ are worked out from the molar mass of the structure shown. Read-outs that look alike come from different tables or passages of the source. Where a SMILES comes first, the peptide text is derived from it.
Experiments:
S. aureus ATCC 6538 = experiment: microbe, parasite or virus in culture
Procedure: (§1) Tools and materials were sterilized in an autoclave for 15 min at 121°C. Bacterial culture was grown in agar media (Mueller Hinton agar) by picking some bacterial colony using an inoculating loop, followed by incubation at 37°C for 24 h. Bacterial culture was then suspended in liquid media (Mueller Hinton Broth). The suspended bacterial culture was then incubated at 37°C for 24 h and standardized equal to 0.5 Mc Farland (2 × 10^8 CFU ml^−1). The culture was diluted into the concentration of 5 × 10^5 CFU ml^−1.
(§2) Six tetrapeptides and six cyclotetrapeptides were dissolved in DMSO 2% with a concentration of 1 µg mL^−1. Each solution was dissolved gradually. Subsequently, 12 sample solutions, ciprofloxacin, nystatin, ketoconazole and DMSO 2% were incubated on a 96-well microplate at 37°C for 18 h. The result was interpreted using a spectrophotometer, with a wavelength of 600 nm. MIC was measured as the percentage of microbial inhibition and cell death.

K. pneumonia ATCC 2357 = experiment: microbe, parasite or virus in culture; settings: for minimum inhibitory concentration (MIC) K. pneumonia ATCC 2357: ATCC 2357, 18 h
Procedure: as §1, §2

E. coli ATCC 11229 = experiment: microbe, parasite or virus in culture; settings: for minimum inhibitory concentration (MIC) E. coli ATCC 11229: ATCC 11229, 18 h
Procedure: as §1, §2

B. cereus ATCC 11778 = experiment: microbe, parasite or virus in culture
Procedure: as §1, §2

[1] = head-to-tail lactamisation of linear tetrapeptide (N-terminal Pro amine + C-terminal Ile acid), HATU (2 equiv), DIPEA (3 equiv); settings: the molecule shown is the open-chain precursor; 12-membered ring; CH2Cl2 (with ca. 0.2-0.5% DMF); 0.4 mM; 25.0 °C; 1.5 h
T. mentagrophyte = experiment: microbe, parasite or virus in culture; settings: 18 h
Procedure: (§3) Tools and materials were sterilized in an autoclave for 15 min at 121°C. Fungal culture was grown in agar media (Potato Dextrose agar) by picking some fungal colony using an inoculating loop, followed by incubation at 30°C for 24–48 h. Fungal culture was then suspended in liquid media (Potato Dextrose Broth). The suspended fungal culture was then incubated for 24–48 h at 30°C. The suspended fungal culture was then incubated at 30°C for 24 h and standardized equal to 0.5 Mc Farland (2 × 10^8 CFU ml^−1). The culture was diluted into the concentration of 5 × 10^5 CFU ml^−1.
as §2

C. albicans ATCC 10231 = tested on: C. albicans ATCC 10231
Procedure: as §3, §2

[2] = Potato Dextrose Broth, 5 × 10^5 CFU ml^−1, DMSO 2%, 96-well microplate, 37°C, 18 h, read at 600 nm, single experiment
[3] = Mueller Hinton Broth, 5 × 10^5 CFU ml^−1, DMSO 2%, 96-well microplate, 37°C, 18 h, read at 600 nm, single experiment

| Structure (SMILES) | ring closure, isolated yield [1] [%] | minimum inhibitory concentration (MIC) T. mentagrophyte (T. mentagrophyte) [mg/L] | minimum inhibitory concentration (MIC) S. aureus ATCC 6538 (S. aureus ATCC 6538; ATCC 6538, 18 h) [mg/L] | minimum inhibitory concentration (MIC) K. pneumonia ATCC 2357 (K. pneumonia ATCC 2357) [mg/L] | minimum inhibitory concentration (MIC) E. coli ATCC 11229 (E. coli ATCC 11229) [mg/L] | minimum inhibitory concentration (MIC) B. cereus ATCC 11778 (B. cereus ATCC 11778; ATCC 11778, 18 h) [mg/L] | minimum inhibitory concentration (MIC) C. albicans ATCC 10231 (C. albicans ATCC 10231; ATCC 10231, 18 h) [mg/L] | further results |
| --- | --- | --- | --- | --- | --- | --- | --- | --- |
| O=C(O)c1cn(C2CC2)c2cc(N3CCNCC3)c(F)cc2c1=O [Ciprofloxacin, reference compound] |  |  |  |  |  |  |  | MIC (S. aureus ATCC 6538; Staphylococcus aureus, ATCC6538, 18 h, read-out: minimum inhibitory concentration (MIC) S. aureus ATCC 6538): 0.098 mg/L (≈ 0.296 µM); MIC (K. pneumonia ATCC 2357; Klebsiella pneumoniae, ATCC2357, 18 h, read-out: minimum inhibitory concentration (MIC) K. pneumonia ATCC 2357): 0.391 mg/L (≈ 1.18 µM); MIC (E. coli ATCC 11229; Escherichia coli, ATCC11229, 18 h, read-out: minimum inhibitory concentration (MIC) E. coli ATCC 11229): 1.56 mg/L (≈ 4.71 µM); MIC (B. cereus ATCC 11778; Bacillus cereus, ATCC11778, 18 h, read-out: minimum inhibitory concentration (MIC) B. cereus ATCC 11778): 0.195 mg/L (≈ 0.589 µM) |
| CC[C@H](C)[C@H](NC(=O)[C@H](C)NC(=O)[C@H](CC(C)C)NC(=O)[C@@H]1CCCN1)C(=O)O [H-Pro-Leu-Ala-Ile-OH] | 70 |  |  |  |  |  |  |  |
| CC[C@H](C)[C@H](NC(=O)[C@H](Cc1ccccc1)NC(=O)[C@H](CC(C)C)NC(=O)[C@@H]1CCCN1)C(=O)O [H-Pro-Leu-Phe-Ile-OH] | 46 |  |  |  |  |  |  |  |
| CC[C@H](C)[C@H](NC(=O)[C@@H]1CCCN1C(=O)[C@H](CC(C)C)NC(=O)[C@@H]1CCCN1)C(=O)O [H-Pro-Leu-Pro-Ile-OH] | 53 |  |  |  |  |  |  |  |
| CC[C@H](C)[C@H](NC(=O)[C@@H](NC(=O)[C@H](CC(C)C)NC(=O)[C@@H]1CCCN1)C(C)C)C(=O)O [H-Pro-Leu-Val-Ile-OH] | 52 |  |  |  |  |  |  |  |
| CC[C@H](C)[C@H](NC(=O)[C@H](C)NC(=O)[C@H](CCCCNC(=O)OC(C)(C)C)NC(=O)[C@@H]1CCCN1)C(=O)O [H-Pro-Lys(Boc)-Ala-Ile-OH] | 43 |  |  |  |  |  |  |  |
| CC[C@H](C)[C@H](NC(=O)[C@H](Cc1ccccc1)NC(=O)[C@H](CCCCNC(=O)OC(C)(C)C)NC(=O)[C@@H]1CCCN1)C(=O)O [H-Pro-Lys(Boc)-Phe-Ile-OH] | 50 |  |  |  |  |  |  |  |
| CC(=O)N1CCN(c2ccc(OCC3COC(Cn4ccnc4)(c4ccc(Cl)cc4Cl)O3)cc2)CC1 (stereo not drawn) [Ketokonazole, reference compound] |  |  |  |  |  |  |  | MIC (T. mentagrophyte; Trichophyton mentagrophytes, read-out: minimum inhibitory concentration (MIC) T. mentagrophyte): 312 mg/L (≈ 588 µM) |
| C[C@@H]1[C@H](O)[C@@H](C)/C=C/C=C/CC/C=C/C=C/C=C/C=C/C(O[C@H]2O[C@H](C)[C@@H](O)[C@H](N)[C@@H]2O)CC2O[C@](O)(CC(O)C(O)CCC(O)CC(O)CC(O)CC(=O)O[C@H]1C)CC(O)C2C(=O)O (stereo partly drawn) [Nystatin, reference compound] |  |  |  |  |  |  |  | minimum inhibitory concentration (MIC) C. albicans ATCC 10231 (C. albicans ATCC 10231; [2]): 4.88 mg/L (≈ 5.27 µM) |
| CC[C@H](C)[C@H](NC(=O)[C@H](C)NC(=O)[C@H](CCCCN)NC(=O)[C@@H]1CCCN1)C(=O)O [PKAI] (H-PKAI-OH) |  | 500 (≈ 1170 µM) | 500 (≈ 1170 µM) | 500 (≈ 1170 µM) | 250 (≈ 585 µM) | 500 (≈ 1170 µM) | 250 (≈ 585 µM) |  |
| CC[C@H](C)[C@H](NC(=O)[C@H](Cc1ccccc1)NC(=O)[C@H](CCCCN)NC(=O)[C@@H]1CCCN1)C(=O)O [PKFI] (H-PKFI-OH) |  | 500 (≈ 993 µM) | 250 (≈ 496 µM) | 500 (≈ 993 µM) | 250 (≈ 496 µM) | 250 (≈ 496 µM) | 250 (≈ 496 µM) |  |
| CC[C@H](C)[C@H](NC(=O)[C@H](C)NC(=O)[C@H](CC(C)C)NC(=O)[C@@H]1CCCN1)C(=O)O [PLAI] (H-PLAI-OH) |  |  | >1000 | 250 (≈ 606 µM) | >1000 |  | >1000 |  |
| CC[C@H](C)[C@H](NC(=O)[C@H](Cc1ccccc1)NC(=O)[C@H](CC(C)C)NC(=O)[C@@H]1CCCN1)C(=O)O [PLFI] (H-PLFI-OH) |  |  | >1000 | >1000 | >1000 | 500 (≈ 1020 µM) | >1000 |  |
| CC[C@H](C)[C@H](NC(=O)[C@@H]1CCCN1C(=O)[C@H](CC(C)C)NC(=O)[C@@H]1CCCN1)C(=O)O [PLPI] (H-PLPI-OH) |  | 500 (≈ 1140 µM) | 500 (≈ 1140 µM) | 500 (≈ 1140 µM) | 500 (≈ 1140 µM) | 250 (≈ 570 µM) | >1000 |  |
| CC[C@H](C)[C@H](NC(=O)[C@@H](NC(=O)[C@H](CC(C)C)NC(=O)[C@@H]1CCCN1)C(C)C)C(=O)O [PLVI] (H-PLVI-OH) |  |  | >1000 | 500 (≈ 1130 µM) | 500 (≈ 1130 µM) | 500 (≈ 1130 µM) | >1000 |  |
| CC[C@H](C)[C@@H]1NC(=O)[C@H](C)NC(=O)[C@H](CCCCN)NC(=O)[C@@H]2CCCN2C1=O [c-PKAI, cyclo-(pro-lys-ala-ile)] (cyclo(PKAI)) |  | 125 (≈ 305 µM) | 125 (≈ 305 µM) | 250 (≈ 610 µM) | 62.50 (≈ 153 µM) | 125 (≈ 305 µM) | 125 (≈ 305 µM) |  |
| CC[C@H](C)[C@@H]1NC(=O)[C@H](Cc2ccccc2)NC(=O)[C@H](CCCCN)NC(=O)[C@@H]2CCCN2C1=O [c-PKFI, cyclo-(pro-lys-phe-ile)] (cyclo(PKFI)) |  | 125 (≈ 257 µM) |  | 250 (≈ 515 µM) | 31.25 (≈ 64.3 µM) |  |  | minimum inhibitory concentration (MIC) S. aureus ATCC 6538 (S. aureus ATCC 6538; [3]): 62.5 mg/L (≈ 129 µM); minimum inhibitory concentration (MIC) B. cereus ATCC 11778 (B. cereus ATCC 11778; [3]): 62.5 mg/L (≈ 129 µM); minimum inhibitory concentration (MIC) C. albicans ATCC 10231 (C. albicans ATCC 10231; [2]): 62.50 mg/L (≈ 129 µM) |
| CC[C@H](C)[C@@H]1NC(=O)[C@H](Cc2ccccc2)NC(=O)[C@H](CC(C)C)NC(=O)[C@@H]2CCCN2C1=O [c-PLFI, cyclo-(pro-leu-phe-ile)] (cyclo(PLFI)) |  | 250 (≈ 531 µM) | 500 (≈ 1060 µM) | 250 (≈ 531 µM) | 125 (≈ 266 µM) | 125 (≈ 266 µM) | 500 (≈ 1060 µM) |  |
| CC[C@H](C)[C@@H]1NC(=O)[C@@H]2CCCN2C(=O)[C@H](CC(C)C)NC(=O)[C@@H]2CCCN2C1=O [c-PLPI, cyclo(pro-leu-pro-ile)] (cyclo(PLPI)) |  |  | 250 (≈ 594 µM) | 250 (≈ 594 µM) | 125 (≈ 297 µM) |  | >1000 |  |
| CC[C@H](C)[C@@H]1NC(=O)[C@H](C(C)C)NC(=O)[C@H](CC(C)C)NC(=O)[C@@H]2CCCN2C1=O [c-PLVI, cyclo-(pro-leu-val-ile)] (cyclo(PLVI)) |  | 62.50 (≈ 148 µM) | 500 (≈ 1180 µM) | 250 (≈ 592 µM) | 125 (≈ 296 µM) | 125 (≈ 296 µM) | 500 (≈ 1180 µM) |  |
